In this assay the test system is Cryptosporidium parvum. As to the kind of experiment: Cytopathic effect (CPE) based assay, C. parvum infected HCT-8 cells. As to conditions: HCT-8 host cell viability (CellTiter-Glo), 48 hours treatment, read-out: Cp CPE EC50. The method, then: Human ileocecal colorectal adenocarcinoma cells (HCT-8 [HRT-18] ATCC, CCL-34) were maintained in T-175 flasks (Corning, 431080) in complete growth medium (RPMI-1640 medium (Gibco, 11875) supplemented with 10% heat-inactivated horse serum (Gibco, 26050), 1×MEM non-essential amino acids (Gibco, 11140), 10 mM HEPES (Gibco, 15630), 100 units/mL penicillin, and 100 units/mL streptomycin) at 37° C. and 5% CO2 in a humidified incubator. Cultures were passaged twice weekly using 10 mL of 1×Phosphate-Buffered Saline (PBS) without Ca^2+ and Mg^2+ (Gibco, 20012) for washing and 3-5 mL per T-175 flask of TrypLE Express Enzyme (Gibco, 12604) for dissociation of adherent cells.
Cryptosporidium parvum oocysts purchased from the Sterling Laboratory, University of Arizona (Iowa isolate) were purified from infected calf feces using discontinuous sucrose and cesium chloride centrifugation gradients and stored in PBS solution containing 0.01% Tween 20, 100 units/mL penicillin and 100 units/mL gentamicin.
Excystation and infection protocols were developed following established methods with some modifications (Gut & Nelson, 1999, Upton et aL, 1995, Bessoff et aL, 2013). Briefly, oocysts were primed in 1 mL of 10 mM hydrochloric acid in 1× Hank's Balanced Salt Solution (HBSS) (Gibco, 14025) for 10 minutes with agitation at 1000 rpm, 37° C. on an Eppendorf thermomixer, then washed twice with 1 mL of room temperature non-acidic 1× HBSS by centrifugation at 13,000 rpm for 3 minutes at 25° C. Primed oocysts were further excysted at a concentration of 1×10^6 oocysts/μL in parasite infection medium consisting of a pre-warmed and pre-gassed 1:1 formulation of Leibovitz's L-15 medium (Gibco, 11415) and UltraCULTURE medium (Lonza, 12-725F) supplemented with 2 mM sodium taurocholate (Sigma, 86339-1), 10% heat-inactivated horse serum, and 200 μM L-ascorbic acid (Sigma, 95210) at 25° C. for 10 minutes. HCT-8 monolayer cells were infected with excysted cryptosporidium at a specified multiplicity of infection (MOI). All dilutions for subsequent assays were performed in parasite infection medium without sodium taurocholate. Pre-excysted oocysts were enumerated microscopically using a C-Chip disposable hemocytometer (NanoEnTek, DHC-N01).
Compound powders were dissolved in neat DMSO (Fisher, D4121) to 10 mM and stored at 4° C. prior to dilution into source plates. Dilutions were carried out using a Microlab STAR liquid handler (Hamilton) to obtain compound source plates containing the ten-point or eight-point three fold dilutions starting from 10 mM in duplicates. Source plates were stored at 4° C. prior to spotting into assay plates. Before administration, all compound source plates were equilibrated to room temperature. A specified volume of compounds from source plate were spotted to assay plate using an Echo Acoustic liquid handler (LABCYTE, 550) so that the final DMSO concentration was less than 0.5%. Each assay plate a specified number of DMSO-treated negative control wells and a well-studied potent active compound at 100 nM as positive control. As a quality control, all positive and negative-control wells were used to calculate a Z′-value and signal to noise ratio (S:N) for each plate.
Cryptosporidium spp are obligate-intracellular parasites that infect intestinal epithelial cells and the host cell is killed upon parasite egress. […] The loss of epithelial cells is due to both rapid parasite invasion/multiplication/egress and also pro-inflammatory immune response (Adams et al., 1994, Griffiths et al., 1994). We have observed a consistent cytopathic effect (CPE) in HCT-8 cells with C. spp infection the loss of viability of the host cells using CellTiter-Glo reagent.
Confluent HCT-8 cells in T-175 flasks were directly infected with excysted oocysts at an MOI (host to parasite) of 1:2 for C. parvum and 1:4 for C. hominis. The number of host-cells is determined using a NucleoCounter (Chemometec, NC-100) in a control flask. […]
(Cytopathic effects are the visible damage that an infection or toxin causes in cultured cells.)
Usually EC50 stands for the concentration giving half of the maximal effect. In the case of `CC(c1ccn2ncc(-c3ccc(C(N)=O)cc3)c2c1)N1C(=O)COc2cc(F)ccc21` (centres unmarked) [Example 66], the EC50 was determined as 0.132 µM.
The result for `CNC(=O)c1ccc(-c2cnn3ccc(C(=O)N(c4ccc(C#N)cn4)C4COC4)cc23)cc1` [Example 76] reads > 20 µM; that for `Fc1ccc(CNc2ccn3ncc(-c4ccc(C(F)(F)F)cc4)c3c2)cc1` [Example 35], > 20 µM; that for `CN(C(=O)c1ccn2ncc(-c3ccc(C(F)(F)F)cn3)c2c1)c1ccc(C#N)cc1` [Example 24], > 20 µM.
The result for `Fc1ccc(SCc2ccn3ncc(-c4ccc(C(F)(F)F)cc4)c3c2)cc1` [Example 21] reads > 20 µM; that for `Cc1ccc(N(C)C(=O)c2ccn3ncc(-c4ccc(C(N)=O)cc4)c3c2)nc1` [Example 63], 0.195 µM.
Regarding `CN(Cc1ccn2ncc(-c3ccc(C(F)(F)F)cc3)c2c1)c1ccc(F)cc1` [Example 2], the concentration for a half-maximal effect (EC50) was > 20 µM.
Consider `CC(=O)Nc1ccc(-c2cnn3ccc(C(=O)N(C)c4ccc(C#N)cn4)cc23)cc1` [Example 69], for which the half-maximal effective concentration (EC50) worked out at 0.201 µM.
The figure for `CN(C(=O)c1ccc(C(F)(F)F)cn1)c1ccn2ncc(-c3ccc(C(F)(F)F)cc3)c2c1` [Example 38] is 4.71 µM; for `CN(C(=O)c1ccc(C2CC2)nc1)c1ccn2ncc(-c3ccc(C(F)(F)F)cc3)c2c1` [Example 49] it is 19.2 µM.
The figure for `CNC(=O)c1ccc(-c2cnn3ccc(C(=O)N4c5ccc(F)cc5OCC4C)cc23)cc1` (centres unmarked) [Example 74] is 1.24 µM; for `CN(c1ccn2ncc(-c3ccc(C(F)(F)F)cc3)c2c1)S(=O)(=O)c1ccc(C#N)cc1` [Example 30] it is > 20 µM.
`CN(C(=O)c1ccc(C(F)(F)F)nc1)c1ccn2ncc(-c3ccc(C(F)(F)F)cc3)c2c1` [Example 37]: the EC50 was 3.79 µM.
The result for `CN(C(=O)c1ccc(Cl)cc1)c1ccn2ncc(-c3ccc(C(F)(F)F)cc3)c2c1` [Example 55] reads 7.3 µM; that for `CN(Cc1ccc(F)cc1)c1ccn2ncc(-c3ccc(C(F)(F)F)cc3)c2c1` [Example 36], > 20 µM.
Consider `CN(C(=O)c1ccc(F)cn1)c1ccn2ncc(-c3ccc(C(F)(F)F)cc3)c2c1` [Example 51], for which the EC50 is > 20 µM.
Regarding `[O-][S+](Cc1ccn2ncc(-c3ccc(C(F)(F)F)cc3)c2c1)c1ccc(F)cc1` (centres unmarked) [Example 22], the concentration giving a half-maximal response (EC50) was > 20 µM.
With `CN(C(=O)c1ccn2ncc(-c3ccc(C(F)(F)F)cc3)c2c1)c1ccc(F)cc1` [Example 4], the concentration giving a half-maximal response (EC50) was 6.78 µM.
Consider `CS(=O)(=O)c1ccc(N(CC2CCOCC2)C(=O)c2ccn3ncc(-c4ccc(C(F)(F)F)cc4)c3c2)cc1` [Example 12], for which the EC50 is 12.6 µM.
Turning to `CN(C(=O)c1ccn2ncc(-c3cnc(N)c(F)c3)c2c1)c1ccc(C#N)cc1` [Example 79], the EC50 was determined as 0.205 µM.
The figure for `CN(C(=O)c1ccn2ncc(-c3ccc(C(F)(F)F)cc3)c2c1)c1ccc(C(F)(F)F)cn1` [Example 33] is 1.51 µM; for `CNC(=O)c1ccc(-c2cnn3ccc(C(=O)N4CCOc5cc(F)ccc54)cc23)cc1` [Example 73] it is 0.964 µM; for `CN(C(=O)c1ccn2ncc(-c3cnc(N)c(C(F)(F)F)c3)c2c1)c1ccc(C#N)cn1` [Example 84] it is 4.27 µM.
The result for `CN(C(=O)c1ccc(C2CC2)cc1)c1ccn2ncc(-c3ccc(C(F)(F)F)cc3)c2c1` [Example 50] reads > 20 µM; that for `COc1cc(-c2cnn3ccc(C(=O)N(C)c4ccc(C#N)cn4)cc23)cnc1N` [Example 88], 2.25 µM.
The result for `COc1ccc(-c2cnn3ccc(C(=O)N(C)c4ccc(C#N)cn4)cc23)nc1` [Example 60] reads 2.37 µM; that for `CN(C(=O)c1ccn2ncc(-c3ccc(C(N)=O)cn3)c2c1)c1ccc(C#N)cn1` [Example 61], 17.8 µM.
Turning to `Cc1ccc(-c2cnn3ccc(C(=O)N(C)c4ccc(C#N)cn4)cc23)nc1` [Example 59], the EC50 is > 20 µM.
The figure for `Cc1cc(-c2cnn3ccc(C(=O)N(C)c4ccc(C#N)cc4)cc23)cnc1N` [Example 81] is 0.683 µM; for `CC(=O)Nc1ccc(-c2cnn3ccc(C(C)N(C)c4ccc(C)cn4)cc23)cc1` (centres unmarked) [Example 68] it is 19.6 µM; for `CN(C(=O)c1ccn2ncc(-c3ccc(N)cc3)c2c1)c1ccc(C#N)cc1` [Example 42] it is 0.142 µM.
The result for `CN(C(=O)c1ccn2ncc(-c3ccc(C(F)(F)F)cc3)c2c1)C1=CCC(C#N)C=C1` (centres unmarked) [Example 1] reads 0.66 µM; that for `CNC(=O)c1ccc(-c2cnn3ccc(C(=O)N(C)c4ccc(C#N)cc4)cc23)cc1` [Example 67], 0.026 µM; that for `CN(C(=O)c1ccn2ncc(-c3ccc(C(F)(F)F)cn3)c2c1)c1ccc(C#N)cn1` [Example 25], 2.3 µM.
Take `CN(C(=O)c1ccn2ncc(-c3ccc(C(F)(F)F)cc3)c2c1)c1ccc(S(C)(=O)=O)cn1` [Example 34]: the EC50 is 4.87 µM.
As to `CN(C(=O)c1ccc(F)cc1)c1ccn2ncc(-c3ccc(C(F)(F)F)cc3)c2c1` [Example 29], the EC50 is > 20 µM.
Take `CN(C(=O)c1ccn2ncc(-c3ccc(C(N)=O)cc3)c2c1)c1ccc(C(F)(F)F)cn1` [Example 62]: the EC50 worked out at 0.028 µM.
Turning to `CNc1nnc(-c2ccc(-c3cnn4ccc(N(C)C(=O)c5ccc(F)cc5)cc34)cc2)s1` [Example 57], the concentration giving a half-maximal response (EC50) was found to be 5.59 µM.
The figure for `Cc1cc(-c2cnn3ccc(C(=O)N(C)c4ccc(C#N)cc4)cc23)cc(C)c1N` [Example 80] is 1.17 µM; for `CN(C(=O)c1ccn2ncc(-c3cnc(N)c(Cl)c3)c2c1)c1ccc(C#N)cn1` [Example 86] it is 0.501 µM.
As to `CN(C(=O)c1ccc(F)cc1)c1ccn2ncc(-c3ccc(C(N)=O)cc3)c2c1` [Example 56], the half-maximal effective concentration (EC50) stood at 0.692 µM.
For the molecule `Cc1ccc(N(C)Cc2ccn3ncc(-c4ccc(C(F)(F)F)cc4)c3c2)nc1` [Example 7], the EC50 is > 20 µM.
Take `CN(C(=O)Nc1ccc(F)cc1)c1ccn2ncc(-c3ccc(C(F)(F)F)cc3)c2c1` [Example 47]: the 50% effective concentration (EC50) was > 20 µM.
Turning to `CN(c1ccn2ncc(-c3ccc(C(F)(F)F)cc3)c2c1)S(=O)(=O)c1ccc(F)cc1` [Example 31], the EC50 is > 20 µM.
The figure for `N#Cc1ccc(C(=O)N(CC2CCOCC2)c2ccn3ncc(-c4ccc(C(F)(F)F)cc4)c3c2)cc1` [Example 39] is > 20 µM.
Regarding `C[C@H](N)C(=O)Nc1ccc(-c2cnn3ccc(C(=O)N(C)c4ccc(C#N)cc4)cc23)cc1` [Example 26], the 50% effective concentration (EC50) came to 0.142 µM.
The figure for `Cc1ccc(N(C)C(=O)c2ccn3ncc(-c4ccc(C(F)(F)F)cc4)c3c2)nc1` [Example 5] is > 20 µM.
The figure for `Fc1ccc(CCc2ccn3ncc(-c4ccc(C(F)(F)F)cc4)c3c2)cc1` [Example 16] is > 20 µM; for `CN(C(=O)c1ccn2ncc(-c3ccc(C(N)=O)cc3)c2c1)c1ccc(Cl)cc1C=O` [Example 89] it is 0.085 µM; for `CN(C(=O)c1ccn2ncc(-c3cnc4[nH]ccc4c3)c2c1)c1ccc(C#N)cc1` [Example 40] it is 0.074 µM.
The figure for `Cc1ccc(OCc2ccn3ncc(-c4ccc(C(F)(F)F)cc4)c3c2)nc1` [Example 15] is > 20 µM; for `CN(C(=O)c1ccc(C(C)(F)F)nc1)c1ccn2ncc(-c3ccc(C(F)(F)F)cc3)c2c1` [Example 48] it is 6.3 µM; for `CN(C(=O)c1ccn2ncc(-c3ccc(C(F)(F)F)cc3)c2c1)c1ccc(Cl)cc1` [Example 3] it is 16.5 µM.

Values taken from patent US20190030009A1, “COMPOUNDS AND COMPOSITIONS FOR THE TREATMENT OF CRYPTOSPORIDIOSIS” (Novartis AG, priority 2016, published 2019).
